Results published in US10583146B2, “Pharmaceutical compositions for glucocorticoid replacement therapy” (Shire ViroPharma Incorporated, priority 2004, dated 2020).

Columns and labels:
[1] = Equivalent doses of glucocorticoids (hydrocortisone equivalents) for systemic glucocorticoid therapy; details: per 1 mg of the glucocorticoid
Description: The term “hydrocortisone equivalents” is used herein to define the amount in mg of a specific glucocorticoid that corresponds to 1 mg of hydrocortisone for the purpose of systemic glucocorticoid therapy as generally understood by medical practitioners. The term is based on the fact that the individual glucocorticoids have different potencies and in order to achieve a desired therapeutic effect different doses of the individual glucocorticoids are required. Equivalent doses of the glucocorticoids can be calculated based on the following table.

[2] = equivalent dose for systemic glucocorticoid therapy; cited from earlier work
[3] = In vivo plasma cortisol profile in healthy volunteers with suppressed endogenous glucocorticoid secretion; parameters: species or system human
Description: The in vivo experiments reported herein were carried out on healthy volunteers. At 6 pm and 11 pm the day before administration of the test composition, the endogenous cortisol secretion was suppressed by oral administration of 2 mg of betamethasone.
The test composition was administered to healthy volunteers. The volunteers were in fasted state and were not allowed to take any food until noon. In the case a tablet is administered, it is ingested together with 200 ml of water. The test composition is administered between 8 am and 10 am on the day following the suppression of endogenous glucocorticoid secretion.
In vivo plasma profiles in humans, N=1 per composition
Dexamethasone suppression test, fasting state, otherwise as described in the paragraph denoted “Method”.
Two films were prepared essentially similar to Example 20—composition A. Film A contains 10 mg of hydrocortisone and film B contains 11.2 mg of hydrocortisone acetate.
The hydrocortisone compositions were tested in two human subjects after labial administration. The subjects had their endogenous glucocorticoid secretion suppressed by synthetic glucocorticoids. The plasma concentration of cortisol was monitored during 360 min after the labial administration, and the serum concentration time profiles from these two different subjects are shown in FIGS. 10 and 11.
The compositions were tested after oral administration to two human subjects (FIG. 12).

SMILES | Hydrocortisone equivalent (1 mg of the glucocorticoid corresponds to the listed amount in mg of hydrocortisone) [1] [mg] | Equivalent amount [2] [mg] | time at which the first measured plasma concentration of cortisol was attained ([3]; Example 20 thin-layer film, 10 mg hydrocortisone, labial administration, two human subjects, FIGS. 10 and 11) [min] | rate and extent of mucosal uptake ([3]; Example 20 thin-layer film, labial administration, two human subjects) | suitability for immediate release judged from in vivo plasma profiles ([3]; Example 18 thin-layer films, humans, N=1 per composition, fasting state, FIGS. 5-7)
CC(=O)OCC(=O)[C@@]1(O)CC[C@H]2[C@@H]3CCC4=CC(=O)CC[C@]4(C)[C@H]3C(=O)C[C@@]21C [Cortisone acetate] | 0.8 | 25 | – | – | –
C[C@]12C=CC(=O)C=C1CC[C@H]1[C@@H]3C[C@@H](O)[C@](O)(C(=O)CO)[C@@]3(C)C[C@H](O)[C@@]12F [Triamcinolone] | 5 | 4 | – | – | –
C[C@]12CCC(=O)C=C1CC[C@@H]1[C@@H]2[C@@H](O)C[C@@]2(C)[C@H]1CC[C@]2(O)C(=O)CO [Hydrocortisone] | 1 | 20 | 10 to 15 | high | –
C[C@]12C=CC(=O)C=C1CC[C@@H]1[C@@H]2[C@@H](O)C[C@@]2(C)[C@H]1CC[C@]2(O)C(=O)CO [Prednisolone] | 4 | 5 | – | – | –
C[C@@H]1C[C@H]2[C@@H]3C[C@H](F)C4=CC(=O)C=C[C@]4(C)[C@H]3[C@@H](O)C[C@]2(C)[C@@]1(O)C(=O)CO [Paramethasone] | 10 | 2 | – | – | –
CC(=O)OCC(=O)[C@@]1(O)CC[C@H]2[C@@H]3CCC4=CC(=O)CC[C@]4(C)[C@H]3[C@@H](O)C[C@@]21C [hydrocortisone acetate] | – | – | – | – | does not seem to be suitable for an immediate release composition
